Reference: PubChem BioAssay (NCI)
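Five compound concentrations were applied to cells in 96-well plates for 48 hours; endpoints were derived by simple linear interpolation of the resulting dose-response curve. GI50 marks 50% less growth. TGI denotes the concentration required for complete inhibition of growth.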

Assays:
Test in all cases: inhibition of tumour cell growth, NCI panel, 48 h
SF-295 CNS = system: SF-295 CNS
EKVX NSCLC = system: EKVX NSCLC
KM12 colon = system: KM12 colon
MALME-3M melanoma = system: MALME-3M melanoma
COLO 205 colon = system: COLO 205 colon
IGROV1 ovarian = system: IGROV1 ovarian
K-562 leukemia = system: K-562 leukemia
HCT-116 colon = system: HCT-116 colon
PC-3 prostate = system: PC-3 prostate
NCI/ADR-RES ovarian = system: NCI/ADR-RES ovarian

CSc1nnc(C(C#N)C#N)nn1
TGI (SF-295 CNS): > 100 µM | TGI (EKVX NSCLC): > 100 µM | TGI (KM12 colon): > 100 µM | TGI (MALME-3M melanoma): > 100 µM | TGI (COLO 205 colon): > 100 µM | TGI (IGROV1 ovarian): > 100 µM | TGI (K-562 leukemia): > 100 µM | TGI (HCT-116 colon): > 100 µM

CCOC(=O)C1C(=O)CC(=O)C2CCCCC21 (configuration not stated)
TGI (SF-295 CNS): > 100 µM | TGI (EKVX NSCLC): > 100 µM | TGI (KM12 colon): > 100 µM | TGI (MALME-3M melanoma): > 100 µM | TGI (COLO 205 colon): > 100 µM | TGI (IGROV1 ovarian): > 100 µM | TGI (K-562 leukemia): > 100 µM | TGI (HCT-116 colon): > 100 µM

CC(=O)C1C(=O)C(=O)N(CCN2C(=O)C(=O)C(C(C)=O)C2=O)C1=O (configuration not stated)
TGI (SF-295 CNS): > 100 µM | TGI (EKVX NSCLC): > 100 µM | TGI (KM12 colon): > 100 µM | TGI (MALME-3M melanoma): > 100 µM | TGI (COLO 205 colon): > 100 µM | TGI (IGROV1 ovarian): > 100 µM | TGI (K-562 leukemia): > 100 µM | TGI (HCT-116 colon): > 100 µM

CC(=O)[CH-]C(=O)c1ccccc1.CC(=O)[CH-]C(=O)c1ccccc1.CC(=O)[CH-]C(=O)c1ccccc1.[Ga+3]
GI50 (SF-295 CNS): 23.3 µM | TGI (SF-295 CNS): 47.5 µM | GI50 (EKVX NSCLC): 22.7 µM | TGI (EKVX NSCLC): 57.6 µM | GI50 (KM12 colon): 16.8 µM | TGI (KM12 colon): 31.1 µM | GI50 (MALME-3M melanoma): 2.61 µM | TGI (MALME-3M melanoma): 19.5 µM | GI50 (COLO 205 colon): 17.7 µM | TGI (COLO 205 colon): 32.3 µM | GI50 (IGROV1 ovarian): 18.6 µM | TGI (IGROV1 ovarian): 46.4 µM | GI50 (K-562 leukemia): 16.9 µM | TGI (K-562 leukemia): 51.5 µM | GI50 (HCT-116 colon): 15.5 µM | TGI (HCT-116 colon): 29.8 µM

CN1CCN(c2ccc(NC3=CC(=O)c4ncncc4C3=O)cc2)CC1
GI50 (PC-3 prostate): 0.289 µM | TGI (PC-3 prostate): 1.14 µM | GI50 (NCI/ADR-RES ovarian): 0.294 µM | TGI (NCI/ADR-RES ovarian): 1.01 µM | GI50 (SF-295 CNS): 0.511 µM | TGI (SF-295 CNS): 1.66 µM | GI50 (EKVX NSCLC): 0.56 µM | TGI (EKVX NSCLC): 2.15 µM | GI50 (KM12 colon): 1.67 µM | TGI (KM12 colon): 4.35 µM | GI50 (MALME-3M melanoma): 0.268 µM | TGI (MALME-3M melanoma): 0.713 µM | GI50 (COLO 205 colon): 1.93 µM | TGI (COLO 205 colon): 4.07 µM | GI50 (IGROV1 ovarian): 0.231 µM | TGI (IGROV1 ovarian): 0.542 µM | GI50 (HCT-116 colon): 0.229 µM | TGI (HCT-116 colon): 0.545 µM

COc1ccc2c(c1)/C(=N/OC(C)=O)c1c-2c(OC)nc2ccccc12
GI50 (PC-3 prostate): > 100 µM | TGI (PC-3 prostate): > 100 µM | GI50 (NCI/ADR-RES ovarian): > 100 µM | TGI (NCI/ADR-RES ovarian): > 100 µM | GI50 (SF-295 CNS): > 100 µM | TGI (SF-295 CNS): > 100 µM | GI50 (EKVX NSCLC): > 100 µM | TGI (EKVX NSCLC): > 100 µM | GI50 (KM12 colon): > 100 µM | TGI (KM12 colon): > 100 µM | GI50 (MALME-3M melanoma): 57.3 µM | TGI (MALME-3M melanoma): > 100 µM | GI50 (COLO 205 colon): > 100 µM | TGI (COLO 205 colon): > 100 µM | GI50 (K-562 leukemia): > 100 µM | TGI (K-562 leukemia): > 100 µM | GI50 (HCT-116 colon): > 100 µM | TGI (HCT-116 colon): > 100 µM

N#CC1=C(N)OC2=C(CCOc3c2ccc2ccccc32)C1c1ccc(Br)cc1 (configuration not stated)
GI50 (PC-3 prostate): 19.9 µM | TGI (PC-3 prostate): 53.6 µM | GI50 (NCI/ADR-RES ovarian): 33.4 µM | TGI (NCI/ADR-RES ovarian): > 100 µM | GI50 (SF-295 CNS): 18.1 µM | TGI (SF-295 CNS): 83.8 µM | GI50 (EKVX NSCLC): > 100 µM | TGI (EKVX NSCLC): > 100 µM | GI50 (KM12 colon): 14.6 µM | TGI (KM12 colon): 34.3 µM | GI50 (MALME-3M melanoma): 15.3 µM | TGI (MALME-3M melanoma): 57.7 µM | GI50 (COLO 205 colon): 29 µM | TGI (COLO 205 colon): > 100 µM | GI50 (K-562 leukemia): 16.5 µM | TGI (K-562 leukemia): 54.3 µM | GI50 (HCT-116 colon): 15.1 µM | TGI (HCT-116 colon): 47.7 µM

COc1cc(C(=O)O[C@H](C(=O)NCCCCNC(=O)[C@@H](OC(=O)c2cc(OC)cc3c(C)cccc23)[C@]2(C)CO2)[C@]2(C)CO2)c2cccc(C)c2c1
GI50 (PC-3 prostate): 0.114 µM | TGI (PC-3 prostate): 1.5 µM | GI50 (NCI/ADR-RES ovarian): 0.199 µM | TGI (NCI/ADR-RES ovarian): 0.904 µM | GI50 (SF-295 CNS): 0.122 µM | TGI (SF-295 CNS): 0.672 µM | GI50 (EKVX NSCLC): 0.227 µM | TGI (EKVX NSCLC): 2.57 µM | GI50 (KM12 colon): 0.139 µM | TGI (KM12 colon): 0.802 µM | GI50 (COLO 205 colon): 0.111 µM | TGI (COLO 205 colon): 3.65 µM | TGI (IGROV1 ovarian): 0.944 µM | TGI (K-562 leukemia): 3.05 µM

CC1=C(C(=O)Nc2ccc(Cl)c(Cl)c2)C(c2cccc(Cl)c2)NC(=S)N1 (configuration not stated)
GI50 (PC-3 prostate): 14.1 µM | TGI (PC-3 prostate): > 50 µM | GI50 (SF-295 CNS): 17.4 µM | TGI (SF-295 CNS): > 50 µM | GI50 (EKVX NSCLC): 12.2 µM | TGI (EKVX NSCLC): 28.8 µM | GI50 (KM12 colon): 11.6 µM | TGI (KM12 colon): 37.6 µM | GI50 (MALME-3M melanoma): 10.9 µM | TGI (MALME-3M melanoma): 29.8 µM | GI50 (COLO 205 colon): 17.4 µM | TGI (COLO 205 colon): > 50 µM | GI50 (IGROV1 ovarian): 8.83 µM | TGI (IGROV1 ovarian): 35 µM | GI50 (K-562 leukemia): 19.7 µM | TGI (K-562 leukemia): > 50 µM | GI50 (HCT-116 colon): 7.75 µM | TGI (HCT-116 colon): 21.5 µM

COC(=O)[C@@]12C3=NO[C@]1(C(=O)OC)C(O[Si](C)(C)C(C)(C)C)[C@@H](OC(C)=O)[C@@H](OC(C)=O)[C@@H]2[C@@H](OCc1ccccc1)CC3 (some centres not stated)
TGI (SF-295 CNS): > 100 µM | TGI (EKVX NSCLC): > 100 µM | TGI (KM12 colon): > 100 µM | TGI (MALME-3M melanoma): > 100 µM | TGI (COLO 205 colon): > 100 µM | TGI (IGROV1 ovarian): > 100 µM | TGI (K-562 leukemia): > 100 µM | TGI (HCT-116 colon): > 100 µM

CN(C)N=Nc1ccc(S(N)(=O)=O)cc1
TGI (SF-295 CNS): > 100 µM | TGI (EKVX NSCLC): > 100 µM | TGI (KM12 colon): > 100 µM | TGI (MALME-3M melanoma): > 100 µM | TGI (COLO 205 colon): > 100 µM | TGI (IGROV1 ovarian): > 100 µM | TGI (K-562 leukemia): > 100 µM | TGI (HCT-116 colon): > 100 µM

COc1cc(-c2ccc[nH]2)[nH]c1/C=C1\N=C(C)C(CC(=O)OCC(C)(C)C)=C1C
GI50 (PC-3 prostate): 0.1 µM | TGI (PC-3 prostate): 1.65 µM | GI50 (NCI/ADR-RES ovarian): 0.357 µM | TGI (NCI/ADR-RES ovarian): 1.46 µM | GI50 (SF-295 CNS): 0.171 µM | TGI (SF-295 CNS): 0.51 µM | GI50 (EKVX NSCLC): 0.0903 µM | TGI (EKVX NSCLC): 1.7 µM | GI50 (KM12 colon): 0.267 µM | TGI (KM12 colon): 1.76 µM | GI50 (MALME-3M melanoma): 0.4 µM | TGI (MALME-3M melanoma): 1.69 µM | GI50 (COLO 205 colon): 0.206 µM | TGI (COLO 205 colon): 1.22 µM | GI50 (K-562 leukemia): 0.34 µM | TGI (K-562 leukemia): 1.37 µM | GI50 (HCT-116 colon): 0.181 µM | TGI (HCT-116 colon): 1.15 µM

COc1cc(O)c(C(=O)/C=C/c2ccc(OC)c(OCc3ccccc3)c2)c(OC)c1
TGI (SF-295 CNS): 2.43 µM | TGI (EKVX NSCLC): > 100 µM | TGI (KM12 colon): > 100 µM | TGI (COLO 205 colon): 2.09 µM | TGI (IGROV1 ovarian): > 100 µM | TGI (K-562 leukemia): > 100 µM | TGI (HCT-116 colon): > 100 µM

CCCCCCCCN=C(NCCCCCCCC)SCc1cccc2ccccc12
GI50 (PC-3 prostate): 1.49 µM | TGI (PC-3 prostate): 2.89 µM | GI50 (NCI/ADR-RES ovarian): 1.62 µM | TGI (NCI/ADR-RES ovarian): 3.05 µM | GI50 (SF-295 CNS): 1.51 µM | TGI (SF-295 CNS): 3.02 µM | GI50 (EKVX NSCLC): 1.79 µM | TGI (EKVX NSCLC): 3.49 µM | GI50 (KM12 colon): 1.68 µM | TGI (KM12 colon): 3.19 µM | GI50 (MALME-3M melanoma): 1.46 µM | TGI (MALME-3M melanoma): 3.68 µM | GI50 (COLO 205 colon): 1.48 µM | TGI (COLO 205 colon): 2.95 µM | GI50 (K-562 leukemia): 0.975 µM | TGI (K-562 leukemia): 3.26 µM | GI50 (HCT-116 colon): 0.73 µM | TGI (HCT-116 colon): 2.01 µM

NC(=O)c1ncn(C2OC(CO)C(O)C2O)c1O (configuration not stated)
TGI (SF-295 CNS): > 100 µM | TGI (EKVX NSCLC): > 100 µM | TGI (KM12 colon): > 100 µM | TGI (MALME-3M melanoma): > 100 µM | TGI (IGROV1 ovarian): > 100 µM | TGI (K-562 leukemia): > 100 µM | TGI (HCT-116 colon): > 100 µM

CC1=C2C=CC(=O)C[C@@]2(C)CCC1
TGI (SF-295 CNS): > 100 µM | TGI (EKVX NSCLC): > 100 µM | TGI (KM12 colon): > 100 µM | TGI (MALME-3M melanoma): > 100 µM | TGI (COLO 205 colon): > 100 µM | TGI (IGROV1 ovarian): > 100 µM | TGI (K-562 leukemia): > 100 µM | TGI (HCT-116 colon): > 100 µM

CCN(CC)c1ccc(C2N3CCCCC3[C@@H]3c4[nH]c5ccccc5c4CCN23)cc1 (some centres not stated)
TGI (SF-295 CNS): > 100 µM | TGI (EKVX NSCLC): > 100 µM | TGI (MALME-3M melanoma): 47.4 µM | TGI (COLO 205 colon): 93.2 µM | TGI (IGROV1 ovarian): > 100 µM | TGI (K-562 leukemia): 61.3 µM | TGI (HCT-116 colon): 33.9 µM
